Data as given in patent US8119647B2, “Fused pyrimidineone compounds as TRPV3 modulators” (Glenmark Pharmaceuticals S.A., priority 2008, dated 2012).

Target: T1, Human TRPV3 (Homo sapiens, UniProt Q8NET8)
T1 construct: expressed in transfected cells; host or cells: CHO cells (G-418 selection)
T1 sequence (Q8NET8 1-790): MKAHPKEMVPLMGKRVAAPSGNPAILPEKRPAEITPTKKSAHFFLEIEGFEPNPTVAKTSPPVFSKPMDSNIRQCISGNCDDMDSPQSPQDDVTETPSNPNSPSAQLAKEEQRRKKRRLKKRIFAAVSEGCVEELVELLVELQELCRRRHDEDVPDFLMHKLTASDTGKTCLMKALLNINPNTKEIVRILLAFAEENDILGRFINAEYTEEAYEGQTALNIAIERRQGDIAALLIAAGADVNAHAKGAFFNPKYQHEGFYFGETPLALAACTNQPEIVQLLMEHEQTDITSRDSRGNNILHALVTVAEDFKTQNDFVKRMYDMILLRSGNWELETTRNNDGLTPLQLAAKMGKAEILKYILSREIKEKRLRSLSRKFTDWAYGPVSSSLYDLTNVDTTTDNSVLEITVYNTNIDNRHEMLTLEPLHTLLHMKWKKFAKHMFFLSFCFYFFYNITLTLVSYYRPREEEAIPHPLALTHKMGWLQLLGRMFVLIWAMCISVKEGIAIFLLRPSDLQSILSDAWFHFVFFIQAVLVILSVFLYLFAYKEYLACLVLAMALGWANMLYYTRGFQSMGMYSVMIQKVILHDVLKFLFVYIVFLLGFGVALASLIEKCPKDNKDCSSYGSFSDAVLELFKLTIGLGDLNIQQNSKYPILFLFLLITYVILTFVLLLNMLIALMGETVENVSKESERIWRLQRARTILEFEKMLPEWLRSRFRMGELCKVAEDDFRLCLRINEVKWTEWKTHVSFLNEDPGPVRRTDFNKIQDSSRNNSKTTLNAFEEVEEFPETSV
Assay: Screening for TRPV3 antagonist using the 45Calcium uptake assay (inhibition of 2-APB induced cellular uptake of radioactive calcium)
Type: cell-based
Conditions: human TRPV3 expressing CHO cells, 2-APB 500 μM; for inhibition at 1 µM / Percentage inhibition at 1.0 μM: 1.0 μM test compound; for inhibition at 1 µM: read-out: Percentage inhibition at 1.0 μM; for inhibition at 10 µM / Percentage inhibition at 10.0 μM: 10.0 μM test compound; for inhibition at 10 µM: read-out: Percentage inhibition at 10.0 μM; for IC50: class symbols
Text: The illustrative examples of the present invention are screened for TRPV3 activity according to a modified procedure described in Tóth, A., Kedei, N., Wang, Y. and Blumberg, P. M. Life Sciences (2003), 73, 487-498. The screening of the compounds can be carried out by other methods and procedures known to a person skilled in the art. Such screening methods may be found in (a) Hu, H.-Z. et al. J. Biol. Chem. (2004), 279, 35741-35747; (b) Smith, G. D. et al. Nature (2002), 418, 186-190; (c) Peier, A. M. et al. Science (2002), 296, 2046-2049.
Screening for TRPV3 Antagonist Using the ^45Calcium Uptake Assay:
The inhibition of TRPV3 receptor activation was followed as inhibition of 2-aminoethoxydiphenylborate (2-APB) induced cellular uptake of radioactive calcium. Test compounds were dissolved in dimethyl sulfoxide (DMSO) to prepare 20 mM stock solution and then diluted using plain medium with DMEM/F-12 containing 1.8 mM CaCl2 to get desired concentration. Final concentration of DMSO in the reaction was 0.5% (v/v). Human TRPV3 expressing CHO cells were grown in DMEM/F-12 medium with 10% FBS, 1% penicillin-streptomycin solution, 400 μg/ml of G-418. Cells were seeded 24 h prior to the assay in 96 well plates so as to get ˜50,000 cells per well on the day of experiment. Cells were treated with test compounds for 10 minutes followed by addition of 2-APB at a final concentration of 500 μM and 5 μCi/ml ^45Ca^+2 for 4 minutes. Cells were washed and lysed using buffer containing 1% Triton X-100, 0.1% deoxycholate and 0.1% SDS. Radioactivity in the lysate was measured in Packardt Top count after addition of liquid scintillant. Concentration response curves were plotted as a % of maximal response obtained in the absence of test antagonist. IC50 value was calculated from concentration response curve by nonlinear regression analysis using GraphPad PRISM software.
Percentage inhibition at concentrations of 1.0 μM and 10.0 μM are given in the table along with IC50 (nM) values for selected examples.

Structure (SMILES): COc1cccc(/C=C/c2nc3sccn3c(=O)c2-c2ccc(C#N)cc2)c1OCC(C)(C)C [Example 13, 4-{7-[(E)-2-(3-Methoxy-2-neopentyloxyphenyl)-1-ethenyl]-5-oxo-5H-[1,3]thiazolo[3,2-a]pyrimidin-6-yl}benzonitrile]
- inhibition at 1 µM: 91.9%
- inhibition at 10 µM: 95.4%
- IC50: < 250 nM

Structure (SMILES): COc1cccc(/C=C/c2nc3sccn3c(=O)c2-c2ccc(C(C)(C)C)cc2)c1OCC1CC1 [Example 4]
- inhibition at 1 µM: 66.5%
- inhibition at 10 µM: 84.7%
- IC50: 250 to 500 nM

Structure (SMILES): COc1cccc(/C=C/c2nc3sccn3c(=O)c2-c2ccc(OC(F)(F)F)cc2)c1OCC1CCCCC1 [Example 71, 7-[(E)-2-(2-Cyclohexylmethoxy-3-methoxyphenyl)-1-ethenyl]-6-[4-(trifluoromethoxy)phenyl]-5H-[1,3]thiazolo[3,2-a]pyrimidin-5-one]
- inhibition at 1 µM: 61.1%
- inhibition at 10 µM: 80.8%

Structure (SMILES): COc1cccc(/C=C/c2nc3sccn3c(=O)c2-c2ccc(C#N)cc2)c1OCCCC#N [Example 22, 4-{7-[(E)-2-{2-(3-Cyanopropoxy)-3-(methoxyphenyl)-1-ethenyl]}-5-oxo-5H-[1,3]-thiazolo[3,2-a]pyrimidin-6-yl}benzonitrile]
- Percentage inhibition at 1.0 μM: 16.1%
- Percentage inhibition at 10.0 μM: 24.5%

Structure (SMILES): COc1cccc(/C=C/c2nc3sccn3c(=O)c2-c2ccc(OC(F)(F)F)cc2)c1OCC1CCC1 [Example 67, 7-[(E)-2-{2-Cyclobutylmethoxy-3-methoxyphenyl}-1-ethenyl]-6-[4-(trifluoromethoxy)-phenyl]-5H-[1,3]thiazolo[3,2-a]pyrimidin-5-one]
- inhibition at 1 µM: 80.2%
- inhibition at 10 µM: 92.2%
- IC50: < 250 nM

Structure (SMILES): O=c1c(-c2ccc(C(F)(F)F)cc2)c(/C=C/c2cccnc2)nc2sccn12 [Example 39, 7-[(E)-2-Pyridin-3-ylvinyl]-6-[4-(trifluoromethyl)phenyl]-5H-[1,3]thiazolo[3,2-a]pyrimidin-5-one]
- inhibition at 1 µM: 4.11%
- inhibition at 10 µM: 15.2%

Structure (SMILES): COc1cccc(/C=C/c2nc3sccn3c(=O)c2-c2ccc(C(C)=O)cc2)c1OCC1CC1 [Example 5]
- Percentage inhibition at 1.0 μM: 60.3%
- Percentage inhibition at 10.0 μM: 95.1%

Structure (SMILES): COc1cccc(/C=C/c2nc3sccn3c(=O)c2-c2ccc(C#N)cc2)c1OCC1CC1 [Example 16, 4-{7-[(E)-2-[2-(Cyclopropylmethoxy)-3-methoxyphenyl]-1-ethenyl}-5-oxo-5H-[1,3]thiazolo[3,2-a]pyrimidin-6-yl}benzonitrile]
- inhibition at 1 µM: 59.3%
- inhibition at 10 µM: 91.7%
- IC50: 500 to 1000 nM

Structure (SMILES): O=c1c(-c2ccc(OC(F)(F)F)cc2)c(/C=C/c2cccc(F)c2OCC2CC2)nc2sccn12 [Example 49, 7-[(E)-2-(2-Cyclopropylmethoxy-3-fluorophenyl)-1-ethenyl]-6-[4-(trifluoromethoxy)-phenyl]-5H-[1,3]thiazolo[3,2-a]pyrimidin-5-one]
- inhibition at 1 µM: 41.3%
- inhibition at 10 µM: 77.3%

Structure (SMILES): CCOc1cccc(/C=C/c2nc3sccn3c(=O)c2-c2ccc(OC(F)(F)F)cc2)c1OCC1CC1 [Example 61, 7-{(E)-2-[2-(Cyclopropylmethoxy)-3-ethoxyphenyl}-1-ethenyl]-6-(4-trifluoromethoxy-phenyl)-5H-[1,3]thiazolo[3,2-a]pyrimidin-5-one]
- inhibition at 1 µM: 22.7%
- inhibition at 10 µM: 60.6%

Structure (SMILES): COc1cccc(/C=C/c2nc3sccn3c(=O)c2-c2cc(F)cc(F)c2)c1OCC1CC1 [Example 8]
- Percentage inhibition at 1.0 μM: 2.0%
- Percentage inhibition at 10.0 μM: 20.5%

Structure (SMILES): COc1cccc(/C=C/c2nc3sccn3c(=O)c2-c2ccc(OC(F)(F)F)cc2)c1OC1CCCCC1 [Example 72, 7-[(E)-2-(2-Cyclohexyloxy-3-methoxyphenyl)-1-ethenyl]-6-[4-(trifluoromethoxy)phenyl]-5H-[1,3]thiazolo[3,2-a]pyrimidin-5-one]
- inhibition at 1 µM: 58.1%
- inhibition at 10 µM: 82.1%
- IC50: 250 to 500 nM
